# Laboratory results published in patent publication US12576081B2 (MEZZION PHARMA CO., LTD., priority 2019, dated 2026).
# “And” between values parts separate entries of the source, which are not always exact repeats. Equal entries are not always repeated.
# Columns and labels:
# [1] = tested on: adolescents with SVHD who had undergone Fontan palliation; assay: FUEL trial, resting data; type: in vivo, human
# Protocol: (§1) The FUEL Trial was conducted at 30 centers around the world. […] (Funded by Mezzion Pharma Co. Ltd., and conducted by the National Heart, Lung, and Blood Institute-funded Pediatric Heart Network; ClinicalTrials.gov number NCT02741115).
# (§2) The primary outcome was the change in oxygen consumption at peak exercise (max or peak VO2) from baseline to the 26-week visit. Secondary exercise outcomes included change in additional measures at maximal exertion, as well as change in measures of submaximal exercise at the ventilatory anaerobic threshold (VAT). The primary outcome for clinical secondary aims included change in myocardial performance index (MPI), an echocardiographically-derived measure of systolic and diastolic ventricular function, change in log-transformed reactive hyperemia index (lnRHI), a PAT-derived measure of peripheral vascular function, and change in log-transformed serum BNP level. Safety was monitored through adverse event reports, which were collected according to a pre-specified protocol of study coordinator outreach, and through ad hoc patient and family communication with members of the study team at each site.
# Individuals between the ages of 12 and 18 years (inclusive) who had undergone the Fontan procedure, who were not receiving treatment with a PDE5 inhibitor, who were ≥40 kg, and who met the minimum height requirement for cycle ergometry (≥132 cm) were eligible for enrollment.
# Randomization assignments were generated by a web-based algorithm after confirmation of trial eligibility and consent.
# (§3) Baseline clinical testing completed before drug initiation included a blood draw to measure brain-type natriuretic peptide (BNP) level, a cardiopulmonary exercise test (CPET) using a standardized cycle ergometer ramp protocol, a standardized echocardiogram, and an assessment of peripheral vascular function using peripheral arterial tonometry (PAT) measured by finger cuff (EndoPAT; Itamar Medical, Israel). Participants who achieved maximal effort, defined as respiratory exchange ratio (RER)≥1.10 at peak exercise during CPET, were eligible for randomization and study drug initiation. […] End-of-study clinical testing included repeat measurement of serum BNP, CPET, echocardiogram, and PAT.
# A sample size of 200 participants per arm was chosen to allow for 90% power to detect a mean treatment difference in change from baseline to 26-week testing in max VO2 of 10% with a type 1 error of 0.05. The following assumption were made: a baseline standard deviation of 7.235 ml/kg/min, a correlation between max VO2 measurements of 0.33, a drop-out and incomplete testing rate of 10%, and failure to reach maximal effort at the 26-week exercise testing in 15% of participants. These assumptions were based on historical data and reflect a conservative approach to assessing within-participant correlations and failure to reach maximal effort. The primary analysis used the intention-to-treat population to evaluate the difference in the change in the primary outcome between treatment arms. This difference was assessed with an analysis of covariance (ANCOVA) with fixed factors for ventricular morphology (single left versus single right or mixed) and treatment group, with a continuous covariate of baseline max VO2. For those without data at the 26-week visit, this value was imputed as equal to the baseline value (no change). […] Secondary outcomes of continuous data points were analyzed in the manner described for the primary outcome. […]
# [2] = tested on: adolescents with Fontan physiology; details: cited from earlier work
# [3] = tested on: adolescents with SVHD who had undergone Fontan palliation; assay: FUEL trial, cardiopulmonary exercise test (cycle ergometer ramp protocol), peak exercise and ventilatory anaerobic threshold; type: in vivo, human
# Protocol: as §1, §2, §3
# A sample size of 200 participants per arm was chosen to allow for 90% power to detect a mean treatment difference in change from baseline to 26-week testing in max VO2 of 10% with a type 1 error of 0.05. The following assumption were made: a baseline standard deviation of 7.235 ml/kg/min, a correlation between max VO2 measurements of 0.33, a drop-out and incomplete testing rate of 10%, and failure to reach maximal effort at the 26-week exercise testing in 15% of participants. These assumptions were based on historical data and reflect a conservative approach to assessing within-participant correlations and failure to reach maximal effort. The primary analysis used the intention-to-treat population to evaluate the difference in the change in the primary outcome between treatment arms. This difference was assessed with an analysis of covariance (ANCOVA) with fixed factors for ventricular morphology (single left versus single right or mixed) and treatment group, with a continuous covariate of baseline max VO2. For those without data at the 26-week visit, this value was imputed as equal to the baseline value (no change). Secondary analyses included participants who successfully completed the protocol with measurable values at each of the secondary endpoints. Secondary outcomes of continuous data points were analyzed in the manner described for the primary outcome. In order to assess the generalizability of findings at the ventilatory anaerobic threshold, demographic and clinical characteristics were compared between participants without paired VO2 at VAT data and those comprising the remainder of the cohort.
# The FUEL Trial was a Phase III clinical trial conducted at 30 centers. […] The primary outcome was the between group difference in change in oxygen consumption at peak exercise. Secondary outcomes included between group differences in changes in sub-maximal exercise at the ventilatory anaerobic threshold (VAT), the myocardial performance index (MPI), the natural log of the reactive hyperemia index (lnRHI), and serum brain-type natriuretic peptide (BNP). […]
# [4] = tested on: adolescents with SVHD who had undergone Fontan palliation; assay: FUEL trial, safety and tolerability (adverse event reports); type: in vivo, human
# Description: as §2
# The primary outcome for clinical secondary aims included the between group differences in change in myocardial performance index (MPI), an echocardiographically-derived measure of systolic and diastolic ventricular function, change in log-transformed reactive hyperemia index (lnRHI), a PAT-derived measure of peripheral vascular function, and change in log-transformed serum BNP level. Measurements for each of these secondary outcomes were performed at core labs. Safety was monitored through adverse event reports, which were collected according to a pre-specified protocol of study coordinator outreach, and through adhoc patient and family communication with members of the study team at each site.
# A sample size of 200 participants per arm was chosen to allow for 90% power to detect a mean treatment difference in change from baseline to 26-week testing in peak VO2 of 10% with a type 1 error of 0.05. We assumed a baseline standard deviation of 7.235 ml/kg/min, a correlation between peak VO2 measurements of 0.33, a drop-out and incomplete testing rate of 10%, and failure to reach maximal effort at the 26-week exercise testing in 15% of participants. These assumptions were based on historical data and reflect a conservative approach to assessing within-participant correlations and failure to reach maximal effort and the analysis was performed using a two-sample, independent means t-test. The primary analysis used the intention-to-treat population to evaluate the difference in the change in the primary outcome between treatment arms. This difference was assessed with an analysis of covariance (ANCOVA) with fixed factors for ventricular morphology (single left versus single right or mixed) and treatment group, with a continuous covariate of baseline peak VO2. For those without data at the 26-week visit, this value was imputed as equal to the baseline value (no change). The alpha level was set at 0.05 with two-sided testing. All statistical analyses were performed using SAS statistical software 9.4 (SAS Institute, Inc., Cary, North Carolina). Secondary analyses included participants who successfully completed the protocol with measurable values at each of the secondary endpoints. Secondary outcomes of continuous data points were analyzed in the manner described for the primary outcome. In order to assess the generalizability of findings at the ventilatory anaerobic threshold, demographic and clinical characteristics were compared between participants without paired VO2 at VAT data and those comprising the remainder of the cohort using the Student's t-test and Fisher's exact test. Fisher's exact test was used to compare adverse events between the udenafil and placebo cohorts.
# [5] = tested on: adolescents with SVHD who had undergone Fontan palliation; assay: FUEL trial, echocardiographic myocardial performance index (blood pool Doppler); type: in vivo, human; details: for MPI difference, Week 26 − Baseline, mean (SD): paired data, decrease shows improvement, p 0.028 vs placebo
# Description: Generally speaking, MPI (also referred to as the Doppler-derived index or Tei Index) is a measure of ventricular systolic and diastolic function as determined by a focused echocardiogram. It combines systolic and diastolic time intervals to assess heart function. More specifically, MPI can be used to assess ventricular performance represented by a numeric value using cardiac time intervals. This numeric value equals the sum of isovolumetric contraction time (ICT) and isovolumetric relaxation time (IRT) divided by ejection time (ET) and can be determined for either the left or right ventricle. Pellett, A. A., et al.: The Tei Index: Methodology and Disease. State Values. Echocardiography. A Jrnl. of CV Ultrasound & Allied Tech. 21(7):669-672 (2004); and Ulugay, A., Tatli E.: Myocardial performance index. Anadolu Kardiyol Derg 8(2):143-8 (April, 2008), both of which are incorporated herein by reference in their entireties. In the FUEL Trial, the MPI measured the performance of the single functioning ventricle. Thus, the MPI results from the FUEL Trial were determined by velocities obtained from blood pool Doppler assessment of the inflow and outflow tract of the functioning single ventricle. In other words, the FUEL Trial MPI was determined by measuring the cardiac time intervals using pulsed-wave Doppler velocity spectra of the ventricular inflow and outflow of the single functioning ventricle.
# Echocardiograms were performed by sonographers with specific training for this protocol. The primary outcome of interest was MPI using Doppler-based measures of inflow and outflow duration. The duration of inflow into the dominant ventricle and outflow across the dominant semilunar valve were measured and used to calculate MPI using the standard formula. Tei C, Ling L H, Hodge D O, et al.: New index of combined systolic and diastolic myocardial performance: a simple and reproducible measure of cardiac—a study in normals and dilated cardiomyopathy. J Cardiol, 26(6):357-66 (1995); and Pellet A A et al.: The Tei Index Methodology and Disease State Values. Echocardiography: A Jrnl Of CV Ultrasound & Allied Tech, 21(7):669-672 (2004) Additional tissue Doppler images were obtained and used to calculate the tissue Doppler based MPI as previously described. Harada K, Tamura M, Toyono M et al.: Comparison of the right ventricular Tei index by tissue Doppler imaging to that obtained by pulsed Doppler in children without heart disease. Am J Cardiol, 90(5):566-9 (2002). Whenever possible, three measurements were made and the mean duration was used for the calculation.
# as §2
# Baseline clinical testing completed before drug initiation included a blood draw to measure brain-type natriuretic peptide (BNP) level, a cardiopulmonary exercise test (CPET) using a standardized cycle ergometer ramp protocol, a standardized echocardiogram, and an assessment of peripheral vascular function using peripheral arterial tonometry (PAT) measured by finger cuff (EndoPAT; Itamar Medical, Israel). […]
# [6] = 87.5 mg twice daily, baseline to week 26
# [7] = baseline before drug, mean ± SD (n)
smiles,measurement,setting,value
"CCCOc1ccc(S(=O)(=O)NCCC2CCCN2C)cc1-c1nc2c(CCC)nn(C)c2c(=O)[nH]1 (centres unmarked) [Udenafil, udenafil]","Resting oxygen saturation, change","[1]; 87.5 mg twice daily, baseline to week 26, mean ± SD (n), p 0.002 vs placebo",0.5%
same,"Resting diastolic blood pressure, change","[1]; 87.5 mg twice daily, baseline to week 26, mean ± SD (n), p 0.003 vs placebo",−2.9 mmHg
same,"Resting diastolic blood pressure, change vs placebo (in words)",[1]; baseline to 26-week testing,small but statistically significant decrease
same,"Resting heart rate, respiratory rate, or systolic blood pressure, change vs placebo (in words)",[1]; baseline to 26-week testing,no difference
same,"Resting oxygen saturation, change vs placebo (in words)",[1]; baseline to 26-week testing,small but statistically significant increase
same,Average serum concentration,[2]; 87.5 mg twice daily compared with other tested regimens,highest average serum concentration
same,Dose-limiting adverse events,[2]; 87.5 mg twice daily,not associated with dose-limiting adverse events
same,Tolerability,[2]; all tested dosing regimens,tolerability at all tested dosing regimens
same,"Peak VO2 (VO2 max), increase in percent",[3]; [6],2.8%
same,"VE/VCO2 at VAT, decrease in percent",[3]; [6],2.1%
same,"Work rate at VAT, improvement in percent",[3]; [6],5.5% and 5.2%
same,"VO2 at VAT, improvement in percent","[3]; 87.5 mg twice daily, baseline to week 26, paired data",3.2%
same,"Anaerobic threshold oxygen consumption (VO2 at VAT), change","[3]; 87.5 mg twice daily, baseline to week 26, paired data, mean ± SD (n), p 0.023 vs placebo (p=0.012)",30 mL/min and 33 ± 185 mL/min and 29.7 mL/min
same,"Peak exercise heart rate, baseline",[3]; [7],165 ± 20 (200) bpm
same,"Peak exercise minute ventilation, baseline",[3]; [7],71 ± 21 (199) L/min
same,"Peak exercise respiratory rate, baseline",[3]; [7],51 ± 11 (199) breaths/min
same,"Peak exercise work rate, baseline",[3]; [7],120 ± 32 (198) W
same,Participants who experienced a serious adverse event,"[4]; human, in vivo, 26 weeks",14
same,"Serious adverse events with possible, probable, or definite relationship to study drug","[4]; human, in vivo, 26 weeks",3 events
same,Adverse events more common than in the placebo group,[4]; in vivo,"Headache, facial flushing, abdominal pain, epistaxis, and erection (male participants) were more common"
same,Priapism,[4]; in vivo,no reported episodes of priapism
same,"Serious adverse events related to study drug, kind",[4]; in vivo,"unilateral retinal artery and vein thrombosis, transient lower extremity diplegia, and transient dyspnea"
same,"Non-serious adverse event: increased erection, participants","[4]; male, human, in vivo, 26 weeks",13 (11.7) n (%)
same,Deaths,"[4]; study cohort, 26 weeks",no deaths
same,"MPI, max of the difference Week 26 − Baseline",[5]; 87.5 mg twice daily,0.2
same,"MPI, median (interquartile range) of the difference Week 26 − Baseline",[5]; 87.5 mg twice daily,"−0.01 (−0.11, 0.05)"
same,"MPI, min of the difference Week 26 − Baseline",[5]; 87.5 mg twice daily,−.3
same,"MPI difference, Week 26 − Baseline, mean (SD)",[5]; 87.5 mg twice daily,122: −0.02 (0.113)
same,"MPI difference, Week 26 − Baseline, mean (SD)","[5]; 87.5 mg twice daily, listed as udenafil",−0.02
same,"MPI, LS mean dif A − B (SE), baseline","[5]; udenafil minus placebo, baseline, p 0.818",−0.0 (0.018)
same,"MPI, LS mean dif A − B (SE), Week 26","[5]; udenafil minus placebo, week 26, p 0.024",−0.04 (0.018)
same,"MPI, LS mean dif A − B (SE), difference Week 26 − Baseline","[5]; udenafil minus placebo, p 0.028",−0.03 (0.014)
